Reference: paper PMC8149581 (Chemistry of Heterocyclic Compounds, 2021)
Values after ≈ are worked out from the molar mass of the structure shown. Read-outs that look alike come from different tables or passages of the source.

Key:
[1] = system: influenza A/Puerto Rico/8/34 (H1N1) virus; type: cell-based
[2] = Simultaneous thermal analysis; type: physicochemical
in vitro = conditions: dog

Ic1ccc(-c2nnn(C34CC5CC(CC(C5)C3)C4)n2)cc1 [Compound 3a, 2-(Adamantan-1-yl)-5-(4-iodophenyl)-2 H -tetrazole]
Selectivity index (SI) ([1]; ratio of CC50 to IC50): 1

Clc1ccc(-c2nnn(C34CC5CC(CC(C5)C3)C4)n2)cc1 [Compound 3d, 2-(Adamantan-1-yl)-5-(4-chlorophenyl)-2 H -tetrazole]
Selectivity index (SI) [1]: 2

O=[N+]([O-])c1cc(-c2nnn(C34CC5CC(CC(C5)C3)C4)n2)ccc1O [Compound 3g, 4-[(2-Adamantan-1-yl)-2 H -tetrazol-5-yl]-2-nitrophenol]
Temperature from which complete decomposition occurs ([2]; argon flow, heating rate 10°C/min): ≥ 250 °C | Temperature of release of molecular nitrogen (loss of weight) ([2]; argon flow, heating rate 10°C/min, strong exothermic effect): 156.2 °C | Loss of mass at complete decomposition ([2]; starting with 250°C): 33.6%

Nc1c(Br)cc([N+](=O)[O-])cc1-c1nnn(C23CC4CC(CC(C4)C2)C3)n1 [Compound 3h, 2-[2-(Adamantan-1-yl)-2 H -tetrazol-5-yl]-6-bromo-4-nitroaniline]
Selectivity index (SI) [1]: 11

Nc1cc(-c2nnn(C34CC5CC(CC(C5)C3)C4)n2)ccc1O [Compound 3i, 4-[2-(Adamantan-1-yl)-2 H -tetrazol-5-yl]-2-aminophenol]
Selectivity index (SI) [1]: 2

CC(N)C12CC3CC(CC(C3)C1)C2 (stereo not drawn) [Rimantadine, reference compound]
Selectivity index (SI) [1]: 5 | CC50 (in vitro): 60 ± 4 µg/mL (≈ 335 µM)
